For seven molecules, EC50, IC50 and CC50 results are on record in ChEMBL document CHEMBL1133946, “An approach to the identification of potent inhibitors of influenza virus fusion using parallel synthesis methodology” (Bioorg Med Chem Lett, 2001).

Each structure is given as a SMILES string. Values after ≈ are worked out from the molar mass of the structure shown. Bounds are passed on as bounds.

Experiment [1] concerns unidentified influenza virus. In words: Compound tested for inhibition of influenza virus infectivity in cell culture determined by plaque reduction assay. It counts as functional, organism-based. A general note: Plaque reduction counts the foci of infection that form in a cell layer.
Experiment [2] is described as follows: Compound tested for inhibition of hemolysis. It counts as functional.
Experiment [3] concerns unidentified influenza virus. In words: Cytotoxicity of compound was measured against Influenza virus. It counts as functional.
For experiment [4], the system named is unidentified influenza virus. Kind of experiment: Compound tested for inhibition of influenza virus infectivity in cell culture determined by plaque reduction assay;Inactive. The format is functional, organism-based.
Experiment [5] relates to unidentified influenza virus. In words: Cytotoxicity of compound was measured against Influenza virus;in range of 8-9. It counts as functional.
[6] abbreviates: unidentified influenza virus, read-out: EC50.
The mark [7] stands for this setting: unidentified influenza virus, read-out: CC50.

The EC50 is the concentration that produces a half-maximal response. What is called IC50 is the concentration at which inhibition is half-maximal. Usually CC50 stands for the concentration giving 50% cytotoxicity. In the case of `CC1(C)C[C@H](O)C[C@@](C)(CNC(=O)c2cc(Cl)ccc2O)C1` (stereo in doubt; 10b), in experiment [1], the half-maximal effective concentration (EC50) is 0.13 µg/mL (≈ 0.399 µM). Also, the concentration for half-maximal inhibition (IC50) in experiment [2] turned out to be 0.25 µg/mL (≈ 0.767 µM). The molecule further came in with a CC50 in experiment [3] greater than 100 µg/mL.

For `Cc1ccc(O)c(C(=O)NC[C@]2(C)C[C@H](O)CC(C)(C)C2)c1`, the concentration giving a half-maximal response (EC50) in experiment [1] (setting [6]) was 0.136 µg/mL (≈ 0.445 µM). This molecule gave an IC50 in experiment [2] of 0.15 µg/mL (≈ 0.491 µM). In experiment [3] (setting [7]), the CC50 came out at 50 µg/mL (≈ 164 µM).

As to `CC1(C)C[C@H](O)C[C@](C)(C/N=C(\S)c2cccc(Cl)c2)C1`, the EC50 entry in experiment [4] is reported as “Not Active”. The 50% cytotoxic concentration (CC50) in experiment [5] is 8 µg/mL (≈ 24.5 µM). In experiment [2], this molecule displayed a concentration for half-maximal inhibition (IC50) of 2.5 µg/mL (≈ 7.67 µM).

In the case of `CC1(C)C[C@H](O)C[C@@](C)(CNC(=S)c2cccc(Cl)c2)C1`, the concentration for a half-maximal effect (EC50) in experiment [1] (setting [6]) was determined as 0.02 µg/mL (≈ 0.0614 µM). Further, in experiment [2], the 50% inhibitory concentration (IC50) was determined as 0.047 µg/mL (≈ 0.144 µM). The half-maximal cytotoxic concentration (CC50) in experiment [3] (setting [7]) turned out to be 20 µg/mL (≈ 61.4 µM).

As to `Cc1ccc(O)c(C(=O)NC[C@@]2(C)C[C@H](O)CC(C)(C)C2)c1`, in experiment [1] (setting [6]), the EC50 came out at 0.037 µg/mL (≈ 0.121 µM). The molecule further gave an IC50 in experiment [2] of 0.033 µg/mL (≈ 0.108 µM). Moreover, the CC50 in experiment [3] (setting [7]) came out at 70 µg/mL (≈ 229 µM).

As to `C[C@@H]1CCC[C@@H]2C[C@@H](NC(=O)c3cc(Cl)c(N)cc3O)CCN21`, the half-maximal effective concentration (EC50) in experiment [1] (setting [6]) was 2 µg/mL (≈ 5.92 µM). In experiment [2], this molecule yielded an IC50 of 0.44 µg/mL (≈ 1.3 µM). Moreover, the 50% cytotoxic concentration (CC50) in experiment [3] (setting [7]) was greater than 100 µg/mL.

Regarding `CC1(C)C[C@H](O)C[C@@](C)(CNC(=O)c2cc(Cl)ccc2O)C1` (stereo in doubt; 11b), the EC50 in experiment [1] is 0.03 µg/mL (≈ 0.0921 µM). The molecule also came in with an IC50 in experiment [2] of 0.025 µg/mL (≈ 0.0767 µM). Further, the CC50 in experiment [3] (setting [7]) amounted to 80 µg/mL (≈ 246 µM).
